Test results from BindingDB's records for doi:10.1021/jm00067a004 (Glaxo Group Research, 1993).
“And” between values parts separate entries of the source, which are not always exact repeats. Identical values can stand only once.

Experiment: In vitro agonist activity at kappa opioid receptor in rabbit vas deferens.

Structure (SMILES)	IC50
CC(=O)N1CCN(C(=O)Cc2ccc(Cl)c(Cl)c2)C(CN2CCCC2)C1 (centres undefined) [1-(4-Acetyl-2-pyrrolidin-1-ylmethyl-piperazin-1-yl)-2-(3,4-dichloro-phenyl)-ethanone]	10 nM
O=C(c1ccccc1)N1CCN(C(=O)Cc2ccc(Cl)c(Cl)c2)C(CN2CCCC2)C1 (centres undefined) [1-(4-Benzoyl-2-pyrrolidin-1-ylmethyl-piperazin-1-yl)-2-(3,4-dichloro-phenyl)-ethanone]	> 10000 nM
CCCC(=O)N1CCN(C(=O)Cc2ccc(Cl)c(Cl)c2)C(CN2CCCC2)C1 (centres undefined) [1-{4-[2-(3,4-Dichloro-phenyl)-acetyl]-3-pyrrolidin-1-ylmethyl-piperazin-1-yl}-butan-1-one]	60 nM
CCC(=O)N1CCN(C(=O)Cc2ccc(Cl)c(Cl)c2)C(CN2CCCC2)C1 (centres undefined) [1-{4-[2-(3,4-Dichloro-phenyl)-acetyl]-3-pyrrolidin-1-ylmethyl-piperazin-1-yl}-propan-1-one]	6.9 nM
C=CC(=O)N1CCN(C(=O)Cc2ccc(Cl)c(Cl)c2)C(CN2CCCC2)C1 (centres undefined) [1-{4-[2-(3,4-Dichloro-phenyl)-acetyl]-3-pyrrolidin-1-ylmethyl-piperazin-1-yl}-propenone]	0.42 nM
O=C(Cc1ccccc1)N1CCN(C(=O)Cc2ccc(Cl)c(Cl)c2)C(CN2CCCC2)C1 (centres undefined) [2-(3,4-Dichloro-phenyl)-1-(4-phenylacetyl-2-pyrrolidin-1-ylmethyl-piperazin-1-yl)-ethanone]	> 10000 nM
COCC(=O)N1CCN(C(=O)Cc2ccc(Cl)c(Cl)c2)C(CN2CCCC2)C1 (centres undefined) [2-(3,4-Dichloro-phenyl)-1-[4-(2-methoxy-acetyl)-2-pyrrolidin-1-ylmethyl-piperazin-1-yl]-ethanone]	2900 nM
COC(=O)N1CCN(C(=O)Cc2ccc(Cl)c(Cl)c2)C(CN2CC=CCC2)C1 (centres undefined) [4-[2-(3,4-Dichloro-phenyl)-acetyl]-3-(3,6-dihydro-2H-pyridin-1-ylmethyl)-piperazine-1-carboxylic acid methyl ester]	0.04 nM
COC(=O)N1CCN(C(=O)Cc2ccc(Cl)c(Cl)c2)C(CN2CCC(O)C2)C1 (centres undefined) [4-[2-(3,4-Dichloro-phenyl)-acetyl]-3-(3-hydroxy-pyrrolidin-1-ylmethyl)-piperazine-1-carboxylic acid methyl ester]	0.34 nM
COC(=O)/C=C1/CCN(CC2CN(C(=O)OC)CCN2C(=O)Cc2ccc(Cl)c(Cl)c2)C1 (centres undefined) [4-[2-(3,4-Dichloro-phenyl)-acetyl]-3-(3-methoxycarbonylmethylene-pyrrolidin-1-ylmethyl)-piperazine-1-carboxylic acid methyl ester]	0.28 nM
COC(=O)/C=C1\CCN(CC2CN(C(=O)OC)CCN2C(=O)Cc2ccc(Cl)c(Cl)c2)C1 (centres undefined) [4-[2-(3,4-Dichloro-phenyl)-acetyl]-3-(3-methoxycarbonylmethylene-pyrrolidin-1-ylmethyl)-piperazine-1-carboxylic acid methyl ester]	4 nM
COC(=O)N1CCN(C(=O)Cc2ccc(Cl)c(Cl)c2)C(CN2CCC(=O)C2)C1 (centres undefined) [4-[2-(3,4-Dichloro-phenyl)-acetyl]-3-(3-oxo-pyrrolidin-1-ylmethyl)-piperazine-1-carboxylic acid methyl ester]	0.34 nM
COC(=O)N1CCN(C(=O)Cc2ccc(Cl)c(Cl)c2)C(CN(C)C)C1 (centres undefined) [4-[2-(3,4-Dichloro-phenyl)-acetyl]-3-dimethylaminomethyl-piperazine-1-carboxylic acid methyl ester]	1.2 nM
O=CN1CCN(C(=O)Cc2ccc(Cl)c(Cl)c2)C(CN2CCCC2)C1 (centres undefined) [4-[2-(3,4-Dichloro-phenyl)-acetyl]-3-pyrrolidin-1-ylmethyl-piperazine-1-carbaldehyde]	15 nM
O=C(OCc1ccccc1)N1CCN(C(=O)Cc2ccc(Cl)c(Cl)c2)C(CN2CCCC2)C1 (centres undefined) [4-[2-(3,4-Dichloro-phenyl)-acetyl]-3-pyrrolidin-1-ylmethyl-piperazine-1-carboxylic acid benzyl ester]	450 nM
CCOC(=O)N1CCN(C(=O)Cc2ccc(Cl)c(Cl)c2)C(CN2CCCC2)C1 (centres undefined) [4-[2-(3,4-Dichloro-phenyl)-acetyl]-3-pyrrolidin-1-ylmethyl-piperazine-1-carboxylic acid ethyl ester]	3.5 nM
O=C(Oc1ccccc1)N1CCN(C(=O)Cc2ccc(Cl)c(Cl)c2)C(CN2CCCC2)C1 (centres undefined) [4-[2-(3,4-Dichloro-phenyl)-acetyl]-3-pyrrolidin-1-ylmethyl-piperazine-1-carboxylic acid phenyl ester]	> 10000 nM
CCCOC(=O)N1CCN(C(=O)Cc2ccc(Cl)c(Cl)c2)C(CN2CCCC2)C1 (centres undefined) [4-[2-(3,4-Dichloro-phenyl)-acetyl]-3-pyrrolidin-1-ylmethyl-piperazine-1-carboxylic acid propyl ester]	300 nM

Experiment: as above
Remark: another data set of the same source

Structure (SMILES)	IC50
COC(=O)N1CCN(C(=O)Cc2ccc(Cl)c(Cl)c2)C(CN2CCCC2)C1 (centres undefined) [GR-89696]	0.041 nM and 0.018 nM
